Source: US20060263340A1, “Treating gastrointestinal diseases with modulators of retinoic acid” (priority 2005, published 2006)

Legend:
T cells = test: In vivo migration of T cells activated with D1-DC pretreated with RA; conditions: T cells activated with D1-DC pretreated with RA for 3 days, injected into mice; average of two independent experiments (FIG. 19B)
B cells = test: In vivo homing of B cells activated with anti-IgM antibody in the presence or absence of retinoic acid; parameters: species or system mouse
Experimental: FIG. 16 illustrates the effect of retinoic acid (RA) in the homing potential of B cells activated with an anti IgM antibody. Mouse spleen B cells are activated with an anti-IgM antibody, either with or without RA, and in the presence of non-intestinal dendritic cells (D1-DC) to improve the effector B cell viability. After 4 days in culture, naïve, B220^+ and B220^Neg (plasmablasts) effector B cells are assayed for (A) α4β7 (MFI: mean fluorescence intensity). (B) CCR9, and (C-D) migration of B cells activated in the presence or the absence of RA. […] In addition, most of the cells localizing in the small bowel mucosa are B220^Low/Neg (plasmablasts). (D) Bar graphs showing the mean±SE of 2 independent experiments. The homing indices (HI) indicate how much more (or less) B cells activated in the presence of RA migrate with respect to those activated without RA in a given tissue (HI=1 means no difference). […]
Dendritic cells treated with retinoic acid (RA) as described in FIGS. 3-6, or gut derived DC (e.g. mobilized from Peyer's patches or mesenteric lymph nodes), or RA itself (see FIG. 15) can be used to activate naive or effector/memory T and/or B cells. […] After 4-5 days, the resulting effector T and/or B cells are analyzed for their expression of gut or skin homing molecules and migratory behavior (see FIG. 16).

CC1=C(/C=C/C(C)=C/C=C/C(C)=C/C(=O)O)C(C)(C)CCC1 [RA, retinoic acid]
migration of T cells to the intestinal mucosa as compared to those activated with control D1-DC (T cells): 200 times | migration of B cells into the small bowel lamina propria as compared to those activated without RA (homing index) (B cells; average of 2 independent experiments (FIG. 16D)): more than 10 times | localization of B cells in the small bowel lamina propria as compared to B cells activated without RA (B cells; mouse spleen B cells activated with anti-IgM with RA, in presence of D1-DC, representative homing experiment (FIG. 16C)): 24 times
